This passage reports EC50, CC50 and melting point results from PMC6222422, “Synthesis and Biological Evaluation of Novel Indole-Derived Thioureas” (Molecules : A Journal of Synthetic Chemistry and Natural …, 2018).

Read-outs that look alike come from different tables or passages of the source. A value given as a limit tells only on which side of the number the result lay.

The subject of series [1] is HIV-1 N119 (Y181C mutant). Briefly: microbe, parasite or virus in culture. As to conditions: read-out: EC50 N119. It is filed as cell-based, Human Immunodeficiency Virus type-1.
Series [2] relates to HIV-1 A17 (K103N + Y181C mutant). Briefly: microbe, parasite or virus in culture. The format is cell-based, Human Immunodeficiency Virus type-1. As to conditions: read-out: EC50 A17.
Series [3] deals with HIV-1 EFV^R (K103R + V179D + P225H mutant). Briefly: microbe, parasite or virus in culture. The format is cell-based, Human Immunodeficiency Virus type-1. As to conditions: read-out: EC50 EFV^R.
The subject of series [4] is HIV-1 AZT^R strain (67N, 70R, 215F, 219Q). Briefly: microbe, parasite or virus in culture. As to conditions: read-out: EC50 AZT^R. It is filed as cell-based, Human Immunodeficiency Virus type-1.
Series [5] relates to HIV-1 MDR strain (74V, 41L, 106A, 215Y). The series is described as follows: microbe, parasite or virus in culture. The format is cell-based, Human Immunodeficiency Virus type-1. As to conditions: read-out: EC50 MDR.
Series [6] relates to HIV-1. As to conditions: read-out: EC50 HIV-1.
In the next series the test system is BVDV. The series is described as follows: microbe, parasite or virus in culture. It is filed as cell-based, bovine viral diarrhoea virus. As to conditions: Bovine viral diarrhea virus isolates and strains, MDBK, in Bos taurus, read-out: BVDV EC50.
Another series has as its system YFV. The series is described as follows: microbe, parasite or virus in culture. It is filed as cell-based. As to conditions: Yellow fever virus, BHK, read-out: YFV EC50.
The test system of another series is CV-B5. Briefly: microbe, parasite or virus in culture. As to conditions: Enterovirus B, CVB5, Vero 76, read-out: CV-B5 EC50. It is filed as cell-based, coxsackievirus B5.
The next series has as its system Sb-1. The series is described as follows: microbe, parasite or virus in culture. It is filed as cell-based, poliovirus type-1. As to conditions: Enterovirus C, Vero 76, read-out: Sb-1 EC50.
In another series the test system is Reo-1. The series is described as follows: microbe, parasite or virus in culture. It is filed as cell-based, reovirus type-1. As to conditions: Reovirus sp., BHK, read-out: Reo-1 EC50.
For a further series, the system named is RSV. Briefly: microbe, parasite or virus in culture. It is filed as cell-based, human respiratory syncytial virus. As to conditions: human respiratory syncytial virus, Vero 76, read-out: RSV EC50.
The test system of a further series is VSV. The series is described as follows: microbe, parasite or virus in culture. The format is cell-based. As to conditions: Vesicular stomatitis virus, Vero 76, read-out: VSV EC50.
In a further series the test system is VV. Briefly: microbe, parasite or virus in culture. It is filed as cell-based. As to conditions: Orthopoxvirus vaccinia, Vero 76, read-out: VV EC50.
A further series concerns HSV-1. The series is described as follows: microbe, parasite or virus in culture. It is filed as cell-based, human herpes 1. As to conditions: Human alphaherpesvirus 1, Vero 76, read-out: HSV-1 EC50.
The test system of series [7] is cell lines derived from human haematological tumours. Briefly: Cytotoxicity against cell lines derived from human haematological tumours, MTT. As to conditions: CCRF-CEM, WIL-2NS, CCRF-SB, read-out: CC50 range over cell lines derived from human haematological tumours. The format is cell-based. As to the method:
Cell lines derived from human haematological tumours [CD4+ human acute T-lymphoblastic leukaemia (CCRF-CEM), human splenic B-lymphoblastoid cells (WIL-2NS), human acute B-lymphoblastic leukaemia (CCRF-SB)] were seeded at an initial density of 1 × 10^5 cells/mL in 96 well plates in RPMI-1640 medium supplemented with 10% foetal calf serum (FCS), 100 units/mL penicillin G and 100 μg/mL streptomycin. Cell viability was determined after 96 h at 37 °C by the MTT method. All cell cultures were then incubated at 37 °C in a humidified, 5% CO2 atmosphere, in the absence or presence of serial dilutions of test compounds in culture medium. Before dilutions, compounds were dissolved in DMSO at 100 mM.

Series [8] is described as follows: in vitro. As to conditions: human.
Series [9] can be described thus: in vitro. As to conditions: cattle (Bos taurus).
A short description of series [10]: in vitro. As to conditions: Syrian hamster (Mesocricetus auratus).
A short description of series [11]: in vitro. As to conditions: African green monkey (Cercopithecus aethiops).
The subject of series [12] is HIV-1. The series is described as follows: microbe, parasite or virus in culture. As to conditions: Human immunodeficiency virus 1, MT4, read-out: HIV-1 EC50.
The next series relates to CCRF-CEM. Briefly: Cytotoxicity against leukaemia/lymphoma cell lines, MTT. As to conditions: Homo sapiens, 96 h, read-out: CC50 CCRF-CEM.
Another series has as its system WIL-2NS. Described as above. As to conditions: Homo sapiens, WIL2-NS, 96 h, read-out: CC50 WIL-2NS.
The next series deals with CCRF-SB. The series is described as above. As to conditions: Homo sapiens, 96 h, read-out: CC50 CCRF-SB.

In the case of `Cc1cn([C@H]2C[C@H](N=[N+]=[N-])[C@@H](CO)O2)c(=O)[nH]c1=O` [AZT], the EC50 in series [1] was 0.025 ± 0.004 µM; in [2] it was 0.01 ± 0.001 µM; in [3], 0.02 ± 0.001 µM; in series [4], 0.35 ± 0.04 µM; in [5], 0.08 ± 0.006 µM; with HIV-1 [6] it was 0.022 ± 0.004 µM. The same molecule showed a CC50 with MT-4 cells of 45 µM.

Consider `S=C(NCCc1c[nH]c2ccccc12)Nc1ccc(I)cc1` [Compound 21, 1-(2-(1H-Indol-3-yl)ethyl)-3-(4-iodophenyl)thiourea], for which the melting point was in the range of 162 to 165 °C. Besides, the concentration giving a half-maximal response (EC50) in the series with BVDV is over 100 µM. Further, the EC50 in the series with YFV is over 11 µM. Also, the EC50 in the series with CV-B5 is over 11 µM. Besides, the 50% effective concentration (EC50) in the series on Sb-1 was over 11 µM. In the series on Reo-1, the EC50 is over 11 µM. The half-maximal effective concentration (EC50) in the series on RSV was over 11 µM. Further, the half-maximal effective concentration (EC50) in the series with VSV is over 11 µM. For the same molecule, in the series on VV, the 50% effective concentration (EC50) was over 11 µM. Besides, the EC50 with HSV-1 was over 11 µM. For the same molecule, the CC50 in series [7] lay in the range of 5 to 12 µM. In “in vitro [8]”, this molecule yielded a CC50 of 2.4 ± 0.2 µM. In “in vitro [9]”, this molecule registered a CC50 of over 100 µM. Moreover, in the series “in vitro [10]”, the CC50 was found to be 11 µM. For the same molecule, the CC50 in “in vitro [11]” was 11 µM. In the series on HIV-1 [12], the EC50 was over 2.4 µM. Further, in the series with CCRF-CEM, the CC50 was 5 ± 0.8 µM. For the same molecule, the CC50 in the series with WIL-2NS was 5.8 ± 1 µM. Also, the CC50 in the series with CCRF-SB came out at 12 ± 1.6 µM.

Regarding `COc1cccc2c1C(=O)c1c(O)c3c(c(O)c1C2=O)C[C@@](O)(C(=O)CO)C[C@@H]3O[C@H]1C[C@H](N)[C@H](O)[C@H](C)O1` [Doxorubicin, reference compound], the CC50 with CCRF-CEM worked out at 0.02 ± 0.002 µM; with WIL-2NS, 0.02 ± 0.003 µM; in the series with CCRF-SB it was 0.03 ± 0.003 µM.

Usually EC50 stands for the concentration needed to bring the measured effect to its halfway point. What is called melting point is the temperature of the solid-liquid transition.
